Source: PubChem BioAssay AID256 (DTP/NCI, 2004)
Where “and” joins values, the source holds several entries; their conditions need not be identical. Equal values may be shown once. Toxic doses and inconclusive results are not listed. Rule for the calls: active = survival T/C of 150% or more; inactive = T/C below 125% in these data.

System: CD2F1 mice, L1210 leukemia ip, survival T/C
Test: NCI In Vivo Anticancer Drug Screen. Data for tumor model L1210 Leukemia (intraperitoneal) in CD2F1 (CDF1) mice
Settings: higher = longer survival
Method in brief: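 Read-out first: treated-group measurement over vehicle-control measurement, expressed as a ratio. Animals bore a transplanted tumor line and were dosed with compound or vehicle.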

[1] = endpoint: mean survival time, dose: 100.0 mg/kg/injection, schedule: Q01DX001 (ip), vehicle: saline
[2] = endpoint: mean survival time, dose: 200.0 mg/kg/injection, schedule: Q01DX001 (ip), vehicle: saline
[3] = endpoint: mean survival time, dose: 400.0 mg/kg/injection, schedule: Q01DX001 (ip), vehicle: saline
[4] = endpoint: mean survival time, dose: 12.5 mg/kg/injection, schedule: Q01DX009 (ip), vehicle: saline
[5] = endpoint: mean survival time, dose: 25.0 mg/kg/injection, schedule: Q01DX009 (ip), vehicle: saline
[6] = endpoint: mean survival time, dose: 50.0 mg/kg/injection, schedule: Q01DX009 (ip), vehicle: saline
[7] = endpoint: mean survival time, dose: 50.0 mg/kg/injection, schedule: Q01DX009 (ip), vehicle: saline with Tween-80
[8] = endpoint: mean survival time, dose: 100.0 mg/kg/injection, schedule: Q01DX009 (ip), vehicle: saline with Tween-80
[9] = endpoint: mean survival time, dose: 200.0 mg/kg/injection, schedule: Q01DX009 (ip), vehicle: saline with Tween-80
[10] = endpoint: mean survival time, dose: 400.0 mg/kg/injection, schedule: Q01DX009 (ip), vehicle: saline with Tween-80
[11] = endpoint: mean survival time, dose: 100.0 mg/kg/injection, schedule: Q01DX001 (ip), vehicle: saline with Tween-80
[12] = endpoint: mean survival time, dose: 200.0 mg/kg/injection, schedule: Q01DX001 (ip), vehicle: saline with Tween-80
[13] = endpoint: mean survival time, dose: 100.0 mg/kg/injection, schedule: Q04DX003 (ip), vehicle: saline with Tween-80
[14] = endpoint: mean survival time, dose: 200.0 mg/kg/injection, schedule: Q04DX003 (ip), vehicle: saline with Tween-80
[15] = endpoint: mean survival time, dose: 400.0 mg/kg/injection, schedule: Q04DX003 (ip), vehicle: saline with Tween-80

Measured: T/C

CN1CC(=O)N=C1N.CN1CC(=O)N=C1N.[Cl][Pt][Cl]
inactive: endpoint: mean survival time, dose: 3.13 mg/kg/injection, schedule: Q04DX003 (ip), vehicle: water 102 % of control | endpoint: mean survival time, dose: 6.25 mg/kg/injection, schedule: Q04DX003 (ip), vehicle: water 96 % of control | endpoint: mean survival time, dose: 12.5 mg/kg/injection, schedule: Q04DX003 (ip), vehicle: water 96 % of control | endpoint: mean survival time, dose: 25.0 mg/kg/injection, schedule: Q04DX003 (ip), vehicle: water 100 % of control | endpoint: mean survival time, dose: 50.0 mg/kg/injection, schedule: Q04DX003 (ip), vehicle: water 102 % of control | endpoint: mean survival time, dose: 100.0 mg/kg/injection, schedule: Q04DX003 (ip), vehicle: water 92 % of control

Cc1cc(O)c2c(c1O)C(=O)c1c(O)ccc(O)c1C2=O
inactive: [1] 95 % of control | [2] 95 % of control | [3] 97 % of control

CCCCN(Cc1ccccc1)CC(O)C[NH-].CS(C)=O.[Cl-].[Cl-].[Pt+4] (configuration not stated)
inactive: endpoint: median survival time, dose: 10.0 mg/kg/injection, schedule: Q04DX003 (ip), vehicle: saline 100 % of control | endpoint: median survival time, dose: 20.0 mg/kg/injection, schedule: Q04DX003 (ip), vehicle: saline 110 % of control | endpoint: median survival time, dose: 40.0 mg/kg/injection, schedule: Q04DX003 (ip), vehicle: saline 108 % of control | endpoint: median survival time, dose: 50.0 mg/kg/injection, schedule: Q04DX003 (ip), vehicle: saline 103 % of control | endpoint: median survival time, dose: 80.0 mg/kg/injection, schedule: Q04DX003 (ip), vehicle: saline 109 % of control

Clc1ccc(CSC2=NCCN2)cc1
inactive: [4] 87 % of control | [5] 87 % of control | [6] 90 % of control

NC(Cc1ccc(N(CCCl)Cc2ccccc2)cc1)C(=O)O (configuration not stated)
inactive: endpoint: mean survival time, dose: 3.12 mg/kg/injection, schedule: Q01DX009 (ip), vehicle: distilled water + Tween-80 103 % of control and 107 % of control | endpoint: mean survival time, dose: 3.13 mg/kg/injection, schedule: Q01DX009 (ip), vehicle: distilled water + Tween-80 106 % of control

O=c1n(CCCl)c(=O)n(CCCl)c(=O)n1CCCl
inactive: [7] 101 % of control | [8] 100 % of control | [9] 101 % of control

COc1ccc(C2=CC(c3ccccc3)C(c3ccccc3)C(=O)N2)cc1 (configuration not stated)
inactive: endpoint: mean survival time, dose: 25.0 mg/kg/injection, schedule: Q04DX002 (ip), vehicle: saline with Tween-80 98 % of control | endpoint: mean survival time, dose: 200.0 mg/kg/injection, schedule: Q04DX002 (ip), vehicle: saline with Tween-80 97 % of control | endpoint: mean survival time, dose: 400.0 mg/kg/injection, schedule: Q04DX002 (ip), vehicle: saline with Tween-80 90 % of control

O=[N+]([O-])c1ccccc1O
inactive: endpoint: mean survival time, dose: 100.0 mg/kg/injection, schedule: Q04DX003 (ip), vehicle: Klucel (hydroxypropylcellulose) (HPC) 97 % of control | endpoint: mean survival time, dose: 200.0 mg/kg/injection, schedule: Q04DX003 (ip), vehicle: Klucel (hydroxypropylcellulose) (HPC) 97 % of control | endpoint: mean survival time, dose: 400.0 mg/kg/injection, schedule: Q04DX003 (ip), vehicle: Klucel (hydroxypropylcellulose) (HPC) 96 % of control

O=C1NC(c2ccccc2)C([N+](=O)[O-])=C1O (configuration not stated)
inactive: endpoint: mean survival time, dose: 100.0 mg/kg/injection, schedule: Q01DX009 (ip), vehicle: saline sonified 101 % of control | [8] 101 % of control | endpoint: mean survival time, dose: 200.0 mg/kg/injection, schedule: Q01DX009 (ip), vehicle: saline sonified 98 % of control | [9] 95 % of control | endpoint: mean survival time, dose: 400.0 mg/kg/injection, schedule: Q01DX009 (ip), vehicle: saline sonified 102 % of control | [10] 97 % of control

O=C(CCl)Nc1nccs1
inactive: endpoint: mean survival time, dose: 12.5 mg/kg/injection, schedule: Q01DX009 (ip), vehicle: saline with Tween-80 100 % of control | endpoint: mean survival time, dose: 25.0 mg/kg/injection, schedule: Q01DX009 (ip), vehicle: saline with Tween-80 95 % of control | [7] 97 % of control | [8] 92 % of control

CN=Cc1ccccc1
inactive: [5] 97 % of control | [6] 97 % of control | endpoint: mean survival time, dose: 100.0 mg/kg/injection, schedule: Q01DX009 (ip), vehicle: saline 100 % of control

FCCc1cccc(C(F)(F)F)c1
inactive: [11] 103 % of control | endpoint: mean survival time, dose: 100.0 mg/kg/injection, schedule: Q04DX003 (ip), vehicle: saline sonified 94 % of control | [12] 101 % of control | endpoint: mean survival time, dose: 200.0 mg/kg/injection, schedule: Q04DX003 (ip), vehicle: saline sonified 98 % of control | endpoint: mean survival time, dose: 400.0 mg/kg/injection, schedule: Q01DX001 (ip), vehicle: saline with Tween-80 101 % of control | endpoint: mean survival time, dose: 400.0 mg/kg/injection, schedule: Q04DX003 (ip), vehicle: saline sonified 98 % of control

c1ccc(SSc2ccccc2)cc1
inactive: [13] 100 % of control

OC1CNCc2cc3c(cc21)OCO3 (configuration not stated)
inactive: [1] 107 % of control | [2] 104 % of control

CCCCCCSC(=O)NC(C)=O
inactive: [8] 92 % of control | [13] 91 % of control | [9] 94 % of control | [14] 94 % of control | [10] 106 % of control | [15] 94 % of control

O/N=C\c1ccc(/C=N/O)cc1
inactive: [13] 94 % of control | [14] 92 % of control

CCCCCCCCCCNC1=C(Cl)C(=O)c2ccccc2C1=O
inactive: endpoint: mean survival time, dose: 25.0 mg/kg/injection, schedule: Q04DX003 (ip), vehicle: saline with Tween-80 98 % of control | endpoint: mean survival time, dose: 50.0 mg/kg/injection, schedule: Q04DX003 (ip), vehicle: saline with Tween-80 94 % of control | [13] 95 % of control

CC1(C)N=C(N)N=C(N)N1c1ccc(C(=O)Nc2ccc(S(=O)(=O)F)cc2)cc1
inactive: [1] 94 % of control | [2] 97 % of control | [3] 103 % of control

CC1(C)Oc2nc[nH]c(=O)c2C1c1ccccc1 (configuration not stated)
inactive: [8] 115 % of control | [13] 101 % of control | [9] 107 % of control | [14] 101 % of control | [10] 98 % of control | [15] 98 % of control

COC1CC2C3CCC4(OC5CC(C)CN(C(C)=O)C5C4C)C(C)=C3C(=O)C2C2(C)CCC3CC312 (configuration not stated)
inactive: [13] 106 % of control | [14] 101 % of control | [15] 104 % of control

c1ccc(C2=NNC(c3ccccn3)=NN2)nc1
inactive: [8] 95 % of control | [13] 97 % of control | [9] 101 % of control | [14] 92 % of control | [10] 97 % of control | [15] 101 % of control

O=N/N=c1/c2[nH]cnc2ncn1O
inactive: endpoint: mean survival time, dose: 12.5 mg/kg/injection, schedule: Q01DX005 (ip), vehicle: distilled water + Tween-80 110 % of control | endpoint: mean survival time, dose: 25.0 mg/kg/injection, schedule: Q01DX005 (ip), vehicle: distilled water + Tween-80 93 % of control | endpoint: mean survival time, dose: 50.0 mg/kg/injection, schedule: Q01DX005 (ip), vehicle: distilled water + Tween-80 89 % of control | endpoint: mean survival time, dose: 100.0 mg/kg/injection, schedule: Q01DX005 (ip), vehicle: distilled water + Tween-80 88 % of control | endpoint: mean survival time, dose: 200.0 mg/kg/injection, schedule: Q01DX005 (ip), vehicle: distilled water + Tween-80 93 % of control

C=C(Br)CNC(=O)C(F)(F)F
inactive: endpoint: mean survival time, dose: 6.25 mg/kg/injection, schedule: Q01DX009 (ip), vehicle: saline 100 % of control | endpoint: mean survival time, dose: 6.25 mg/kg/injection, schedule: Q04DX003 (ip), vehicle: saline 96 % of control | [4] 102 % of control | endpoint: mean survival time, dose: 12.5 mg/kg/injection, schedule: Q04DX003 (ip), vehicle: saline 98 % of control | [5] 108 % of control | endpoint: mean survival time, dose: 25.0 mg/kg/injection, schedule: Q04DX003 (ip), vehicle: saline 93 % of control

CC(C)C(Br)C(Br)c1ccccc1 (configuration not stated)
inactive: endpoint: mean survival time, dose: 100.0 mg/kg/injection, schedule: Q04DX003 (ip), vehicle: saline 96 % of control | endpoint: mean survival time, dose: 200.0 mg/kg/injection, schedule: Q04DX003 (ip), vehicle: saline 102 % of control

Cn1nc(NC(=O)C(F)(F)F)c2ncc(-c3ccccc3)nc21
inactive: [13] 91 % of control | [14] 87 % of control | [15] 91 % of control

CCCCC(C)C1(CCC)NC(C)(C)CC(C)O1 (configuration not stated)
inactive: [11] 97 % of control | [12] 101 % of control
